Results reported in US9695155B2, “Herbicidal substituted pyrimidinyloxy benzene compounds” (E. I. DU PONT DE NEMOURS AND COMPANY, priority 2013, dated 2017).

Legend:
[1] = system: morningglory; test: Test C postemergence; assay type: in vivo, Ipomoea coccinea; conditions: for Plant response rating (0 to 100), Morningglory: 0 is no effect, 100 is complete control; for Morningglory plant response rating: 31 g ai/ha; for Morningglory plant response rating / Plant response rating, Morningglory: scale 0 to 100 (0 no effect, 100 complete control)
In short: (§1)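 Seeds are planted in blended loam soil and sand and treated preemergence, while seedlings in a peat moss/vermiculite medium receive postemergence sprays at 2 to 18 cm height. All plants stay in the greenhouse for 13 to 15 days before visual comparison with controls on a 0–100 scale.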

[2] = system: wheat, winter; test: Test C postemergence; assay type: in vivo, Triticum aestivum; conditions: for Plant response rating (0 to 100), Wheat: 0 is no effect, 100 is complete control; for Wheat plant response rating: 31 g ai/ha; for Wheat plant response rating / Plant response rating, Wheat: scale 0 to 100 (0 no effect, 100 complete control)
In short: as §1

[3] = system: barnyardgrass; test: Test B flooded paddy test; assay type: in vivo, Echinochloa crus-galli; conditions: Flood, 250 g ai/ha; 0 to 100 scale where 0 is no effect and 100 is complete control
In short: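 Seedlings are raised to two leaves, flooded to a depth of 3 cm and dosed by adding the compound to the floodwater. Water level is kept constant, and plants are scored visually versus controls 13–15 days later (0 = no effect, 100 = complete control).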

[4] = system: soybean; test: Test C postemergence; assay type: in vivo, Glycine max; conditions: for Plant response rating (0 to 100), Soybean: 0 is no effect, 100 is complete control; for Soybean plant response rating: 31 g ai/ha; for Soybean plant response rating / Plant response rating, Soybean: scale 0 to 100 (0 no effect, 100 complete control)
In short: as §1

[5] = system: lambsquarters; test: Test C postemergence; assay type: in vivo, Chenopodium album; conditions: for Plant response rating (0 to 100), Lambsquarters: 0 is no effect, 100 is complete control; for Lambsquarters plant response rating: 31 g ai/ha; for Lambsquarters plant response rating / Plant response rating, Lambsquarters: scale 0 to 100 (0 no effect, 100 complete control)
In short: as §1

[6] = system: large (Lg) crabgrass; test: Test A postemergence; assay type: in vivo, Digitaria sanguinalis; conditions: for Crabgrass, Large plant response rating: 125 g ai/ha
In short: (§2)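 Visual injury scored 0–100 (100 = complete control) against untreated controls about 10 days after treatment in a greenhouse. Test chemicals, formulated with surfactant in non-phytotoxic solvent, were sprayed on soil preemergence or on 2-10 cm, one- to two-leaf plants postemergence.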

[7] = system: oilseed rape; test: Test C postemergence; assay type: in vivo, Brassica napus; conditions: for Plant response rating (0 to 100), Oilseed Rape: 0 is no effect, 100 is complete control; for Oilseed Rape plant response rating: 31 g ai/ha; for Oilseed Rape plant response rating / Plant response rating, Oilseed Rape: scale 0 to 100 (0 no effect, 100 complete control)
In short: as §1

[8] = system: ragweed; test: Test C postemergence; assay type: in vivo, Ambrosia elatior; conditions: for Plant response rating (0 to 100), Ragweed: 0 is no effect, 100 is complete control; for Ragweed plant response rating: 31 g ai/ha; for Ragweed plant response rating / Plant response rating, Ragweed: scale 0 to 100 (0 no effect, 100 complete control)
In short: as §1

[9] = system: velvetleaf; test: Test A postemergence; assay type: in vivo, Abutilon theophrasti; conditions: for Velvetleaf plant response rating: 125 g ai/ha
In short: as §2

[10] = postemergence, visual rating, 13 to 15 days
[11] = 125 g ai/ha, postemergence, visual rating
[12] = Postemergence, 62 g ai/ha, 13 to 15 days
[13] = 0 to 100 scale where 0 is no effect and 100 is complete control
[14] = 500 g ai/ha, 0 to 100 scale where 0 is no effect and 100 is complete control
[15] = 1000 g ai/ha, 0 to 100 scale, 0 no effect, 100 complete control

Row | Structure (SMILES) | Plant response rating (0 to 100), Morningglory ([1]; 16 g ai/ha, postemergence) | Morningglory plant response rating [1, 10] | Plant response rating, Morningglory [1, 11] | Plant response rating, Morningglory [1, 12] | Plant response rating (0 to 100), Wheat ([2]; 16 g ai/ha, postemergence) | Wheat plant response rating [2, 10] | Plant response rating, Wheat [2, 12] | Plant response rating, Barnyardgrass [3] | Plant response rating (0 to 100), Soybean ([4]; 16 g ai/ha, postemergence) | Soybean plant response rating [4, 10] | Plant response rating, Soybean [4, 12] | Plant response rating (0 to 100), Lambsquarters ([5]; 16 g ai/ha, postemergence) | Lambsquarters plant response rating [5, 10] | Plant response rating, Lambsquarters [5, 12] | Plant response rating (0 to 100), Oilseed Rape ([7]; 16 g ai/ha, postemergence) | Oilseed Rape plant response rating [7, 10] | Plant response rating, Oilseed Rape [7, 12] | Plant response rating (0 to 100), Ragweed ([8]; 16 g ai/ha, postemergence) | Ragweed plant response rating [8, 10] | Plant response rating, Ragweed [8, 12] | also measured
1 | FC(F)c1cnn(-c2c(Cl)cccc2Oc2ncc(Cl)cn2)c1 [Compound 192] | 30 | 50 | 35 | 35 | 0 | 0 | 5 | 0 | 30 | 30 | 75 | 10 | 25 | 90 | 10 | 5 | 60 | 10 | 25 | 15 | Plant response rating, Wheat [2, 11]: 5; Plant response rating, Soybean [4, 11]: 80; Plant response rating, Lambsquarters [5, 11]: 90; Crabgrass, Large plant response rating [6, 13]: 50; Plant response rating, Crabgrass, Large [6, 14]: 90; Plant response rating, Oilseed Rape [7, 11]: 60; Plant response rating, Ragweed [8, 11]: 45; Velvetleaf plant response rating [9, 13]: 90; Plant response rating, Velvetleaf [9, 14]: 100
2 | Clc1cnc(Oc2cccc(Cl)c2-n2cc(Cl)cn2)nc1 [Compound 220] | 15 | 50 | 50 | 40 | 0 | 0 | 0 | 0 | 40 | 65 | 60 | 15 | 50 | 55 | 50 | 65 | 85 | 10 | 10 | 15 | Plant response rating, Wheat [2, 11]: 0; Plant response rating, Soybean [4, 11]: 95; Plant response rating, Lambsquarters [5, 11]: 75; Crabgrass, Large plant response rating [6, 13]: 100; Plant response rating, Crabgrass, Large [6, 14]: 100; Plant response rating, Oilseed Rape [7, 11]: 90; Plant response rating, Ragweed [8, 11]: 25; Velvetleaf plant response rating [9, 13]: 100; Plant response rating, Velvetleaf [9, 14]: 100
3 | Clc1cnc(Oc2cccc(Br)c2-n2cc(Cl)cn2)nc1 [Compound 221] | 45 | 40 | 55 | 50 | 0 | 0 | 0 | 0 | 30 | 55 | 65 | 15 | 60 | 50 | 40 | 50 | 60 | 5 | 5 | 20 | Plant response rating, Wheat [2, 11]: 0; Plant response rating, Soybean [4, 11]: 80; Plant response rating, Lambsquarters [5, 11]: 65; Crabgrass, Large plant response rating [6, 13]: 60; Plant response rating, Crabgrass, Large [6, 14]: 100; Plant response rating, Oilseed Rape [7, 11]: 80; Plant response rating, Ragweed [8, 11]: 10; Velvetleaf plant response rating [9, 13]: 100; Plant response rating, Velvetleaf [9, 14]: 100
4 | Clc1cnc(Oc2ccccc2-n2cc(I)nn2)nc1 [Compound 222] | 90 | 45 |  | 70 | 0 | 0 | 5 | 0 | 55 | 65 | 60 | 65 | 65 | 75 | 5 | 10 | 20 | 40 | 45 | 60 | Plant response rating (0 to 100), Morningglory ([1]; 8 g ai/ha, postemergence): 40; Plant response rating (0 to 100), Wheat ([2]; 8 g ai/ha, postemergence): 0; Plant response rating (0 to 100), Soybean ([4]; 8 g ai/ha, postemergence): 40; Plant response rating (0 to 100), Lambsquarters ([5]; 8 g ai/ha, postemergence): 50; Plant response rating, Crabgrass, Large [6, 15]: 100; Plant response rating (0 to 100), Oilseed Rape ([7]; 8 g ai/ha, postemergence): 10; Plant response rating (0 to 100), Ragweed ([8]; 8 g ai/ha, postemergence): 20; Plant response rating, Velvetleaf [9, 15]: 100
5 | Clc1cnc(Oc2ccccc2-n2cc(Br)nn2)nc1 [Compound 223] | 5 | 45 | 80 | 70 | 0 | 0 | 0 | 35 | 60 | 65 | 85 | 60 | 75 | 75 | 10 | 50 | 80 | 10 | 20 | 55 | Plant response rating, Wheat [2, 11]: 5; Plant response rating, Soybean [4, 11]: 95; Plant response rating, Lambsquarters [5, 11]: 95; Plant response rating, Crabgrass, Large [6, 15]: 100; Plant response rating, Oilseed Rape [7, 11]: 85; Plant response rating, Ragweed [8, 11]: 75; Plant response rating, Velvetleaf [9, 15]: 100
6 | Fc1cnc(Oc2ccccc2-n2cc(C(F)F)cn2)nc1 [Compound 228] | 5 | 10 | 35 | 25 | 0 | 0 | 0 | 0 | 25 | 35 | 60 | 25 | 40 | 75 | 40 | 60 | 60 | 5 | 20 | 55 | Plant response rating, Wheat [2, 11]: 0; Plant response rating, Soybean [4, 11]: 80; Plant response rating, Lambsquarters [5, 11]: 65; Crabgrass, Large plant response rating [6, 13]: 40; Plant response rating, Crabgrass, Large [6, 14]: 90; Plant response rating, Oilseed Rape [7, 11]: 85; Plant response rating, Ragweed [8, 11]: 45; Velvetleaf plant response rating [9, 13]: 100; Plant response rating, Velvetleaf [9, 14]: 100
7 | FC(F)c1cnn(-c2c(Br)cccc2Oc2ncc(Cl)cn2)c1 [Compound 232] | 70 | 80 | 85 | 55 | 0 | 0 | 0 | 10 | 30 | 55 | 70 | 55 | 60 | 70 | 5 | 50 | 5 | 25 | 35 | 50 | Plant response rating, Wheat [2, 11]: 5; Plant response rating, Soybean [4, 11]: 75; Plant response rating, Lambsquarters [5, 11]: 75; Crabgrass, Large plant response rating [6, 13]: 60; Plant response rating, Crabgrass, Large [6, 14]: 90; Plant response rating, Oilseed Rape [7, 11]: 60; Plant response rating, Ragweed [8, 11]: 60; Velvetleaf plant response rating [9, 13]: 80; Plant response rating, Velvetleaf [9, 14]: 100
